Like-named read-outs stand apart in the source and are kept apart here. A value given as a limit tells only on which side of the number the result lay.

One assay concerns the target T1, EphB4 (UniProt Ref: Q541P7) (Homo sapiens, UniProt P54760).
T1 construct: purchased Reaction Biology
T1 sequence (P54760 16-987): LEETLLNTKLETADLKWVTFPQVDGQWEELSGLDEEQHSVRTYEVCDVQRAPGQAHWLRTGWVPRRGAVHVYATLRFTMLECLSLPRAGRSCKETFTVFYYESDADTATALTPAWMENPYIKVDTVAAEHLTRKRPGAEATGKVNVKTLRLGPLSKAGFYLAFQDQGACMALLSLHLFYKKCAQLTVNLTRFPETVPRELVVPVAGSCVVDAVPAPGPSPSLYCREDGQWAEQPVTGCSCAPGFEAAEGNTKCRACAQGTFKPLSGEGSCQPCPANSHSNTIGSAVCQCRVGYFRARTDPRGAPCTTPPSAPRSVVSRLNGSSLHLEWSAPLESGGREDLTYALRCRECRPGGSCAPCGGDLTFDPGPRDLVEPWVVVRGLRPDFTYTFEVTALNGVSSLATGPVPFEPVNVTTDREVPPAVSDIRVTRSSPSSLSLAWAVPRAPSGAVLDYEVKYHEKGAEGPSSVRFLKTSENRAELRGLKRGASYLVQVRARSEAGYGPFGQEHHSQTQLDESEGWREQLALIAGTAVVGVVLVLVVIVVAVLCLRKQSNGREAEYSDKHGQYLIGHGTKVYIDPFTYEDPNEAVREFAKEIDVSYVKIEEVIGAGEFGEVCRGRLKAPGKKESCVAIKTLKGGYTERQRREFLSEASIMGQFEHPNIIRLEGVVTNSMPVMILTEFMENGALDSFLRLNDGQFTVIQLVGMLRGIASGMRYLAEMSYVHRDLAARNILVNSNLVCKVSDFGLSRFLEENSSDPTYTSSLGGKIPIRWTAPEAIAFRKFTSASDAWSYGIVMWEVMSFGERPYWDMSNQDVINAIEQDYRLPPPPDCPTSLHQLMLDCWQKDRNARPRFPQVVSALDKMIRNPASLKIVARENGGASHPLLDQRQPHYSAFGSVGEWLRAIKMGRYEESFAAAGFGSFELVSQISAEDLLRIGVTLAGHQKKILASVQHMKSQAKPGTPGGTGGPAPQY
Nature of the assay: EphB4 assay (Reaction Biology HotSpot radioactive kinase assay). The conditions noted are these: ATP 10 μM; read-out: EphB4 potency IC50. The assay is classed as biochemical. As to the method: Inhibition of EphB4 (UniProt Ref: Q541P7) by a test compound is determined by a commercially available Reaction Biology proprietary nanoliter radioactive HotSpot^SM assay (Reaction Biology, One great valley parkway, Suite 2, Malvern Pa., 19355, USA). The principle of the assay consists of the measurement of incorporated ^33P into poly[Glu:Tyr] (4:1) (0.2 mg/mL) when the substrate is phosphorylated by the enzyme using [^33P]-γ-ATP and ATP (10 μM).
To determine the IC50, a serial dilution of compound is tested starting from 10 or 3 μM (highest dilution) with a 1/3 dilution.

Another assay deals with T2, Recombinant EphA7 (Homo sapiens, UniProt Q15375).
T2 construct: purchased Carna 08-126
The assay can be described thus: EphA7 assay (33P incorporation into poly GT, filter plate). It is filed as biochemical. As to the method:
The principle of the assay consists of the measurement of incorporated ^33P into the substrate poly GT when phosphorylated by the enzyme EphA7 using [^33P]-γ-ATP and ATP. Unincorporated ^33P is removed by loading the samples on a filter plate (using a harvester, Perkin Elmer) and 6 subsequent washing steps. ^33P incorporated in polyGT is measured on a Topcount after addition of microscint to the filter plates (Perkin Elmer).
Recombinant EphA7 (Carna Cat#08-126, 2 ng per well) was incubated with 0.1 mg/mL Poly(Glu,Tyr)sodium salt (4:1), MW 20 000-50 000 (Sigma catalog number P0275) in kinase reaction buffer (10 mM MOPS pH 7.2, 5 mM DTT, 0.01% Triton-X100, 5 mM MnCl2, 0.5 mM Na3VO4, 5 mM beta-glycerolphosphate), 0.15 μM non-radioactive ATP, 0.125 μCi/25 μl ^33P-gamma-ATP (Perkin Elmer, catalog number NEG602K) final concentrations with or without 5 μL containing test compound or vehicle (DMSO, 1% final concentration), in a total volume of 25 μL, in a polypropylene 96-well plate (Greiner, V-bottom). After 90 min at 30° C., reactions were stopped by adding of 25 μL/well of 150 mM phosphoric acid. All of the terminated kinase reaction was transferred to prewashed (75 mM phosphoric acid) 96 well filter plates (Perkin Elmer catalog number 6005177) using a cell harvester (Perkin Elmer). Plates were washed 6 times with 300 μL per well of a 75 mM phosphoric acid solution and the bottom of the plates was sealed. 40 μL/well of Microscint-20 was added, the top of the plates was sealed and readout was performed using the Topcount (Perkin Elmer). The ability of a test compound to inhibit the kinase activity was determined using counts per minutes (cpm) measured by the Topcount as:
Cpm (cpd): cpm determined for sample with test compound present
Cpm (control): cpm determined for sample with positive control inhibitor (10 μM staurosporine)
Cpm (vehicle): cpm determined in the presence of vehicle (1% DMSO)
Dose dilution series were prepared for the compounds enabling the testing of dose-response effects in the EphA7 assay and the calculation of the IC50 for each compound. Each compound was routinely tested at concentration of 20 μM followed by a 1/5 serial dilution, 10 points in a final concentration of 1% DMSO. When potency of compound series increased, more dilutions may be prepared and/or the top concentration may be lowered (e.g. 5 μM, 1 μM).

[1] abbreviates: EphA7 potency, 0.15 μM ATP, read-out: IC50.

T2 sequence (Q15375 579-998 limits assumed): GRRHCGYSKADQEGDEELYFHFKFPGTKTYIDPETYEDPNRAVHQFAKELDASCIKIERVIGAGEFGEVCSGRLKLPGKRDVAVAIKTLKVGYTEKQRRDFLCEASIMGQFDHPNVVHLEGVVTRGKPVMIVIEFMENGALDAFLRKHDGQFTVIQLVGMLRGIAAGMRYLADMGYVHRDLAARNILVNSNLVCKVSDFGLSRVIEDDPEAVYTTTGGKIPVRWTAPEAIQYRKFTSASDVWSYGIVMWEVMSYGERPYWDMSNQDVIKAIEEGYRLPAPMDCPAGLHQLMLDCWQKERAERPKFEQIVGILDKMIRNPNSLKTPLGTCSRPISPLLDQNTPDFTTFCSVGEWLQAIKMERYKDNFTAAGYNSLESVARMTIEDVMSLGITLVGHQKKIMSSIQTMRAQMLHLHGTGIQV

The term IC50 denotes the midpoint of a concentration-inhibition curve. In the case of `Cc1ccc(NC(=O)c2cccc(C(F)(F)F)c2)cc1-c1ccc2c(C(O)CN3CCOCC3)n[nH]c2n1` (centres unmarked) [Compound 2, N-{3-[3-(1-Hydroxy-2-morpholin-4-yl-ethyl)-1H-pyrazolo[3,4-b]pyridin-6-yl]-4-methyl-phenyl}-3-trifluoromethyl-benzamide], on EphB4, the IC50 was in the range of 0.01 to 25 nM.

For `Cc1cccc(C(=O)Nc2ccc(C)c(-c3ccc4c(C(O)CN5CCOCC5)n[nH]c4n3)c2)c1` (centres unmarked) [Compound 3, N-{3-[3-(1-Hydroxy-2-morpholin-4-yl-ethyl)-1H-pyrazolo[3,4-b]pyridin-6-yl]-4-methyl-phenyl}-3-methyl-benzamide], the IC50 on Recombinant EphA7 (setting [1]) was > 1000 nM; at EphB4, 0.01 to 25 nM. For `COc1cc(OC)cc(C(=O)Nc2ccc(C)c(-c3ccc4c(C(O)CN5CCOCC5)n[nH]c4n3)c2)c1` (centres unmarked) [Compound 4, N-{3-[3-(1-Hydroxy-2-morpholin-4-yl-ethyl)-1H-pyrazolo[3,4-b]pyridin-6-yl]-4-methyl-phenyl}-3,5-dimethoxy-benzamide] the same measures were > 1000 nM and 25 to 50 nM.

Consider `Cc1ccc(C(=O)Nc2cccc(C(F)(F)F)c2)cc1-c1ccc2c(C(O)CN3CCOCC3)n[nH]c2n1` (centres unmarked) [Compound 5, 3-[3-(1-Hydroxy-2-morpholin-4-yl-ethyl)-1H-pyrazolo[3,4-b]pyridin-6-yl]-4-methyl-N-(3-trifluoromethyl-phenyl)-benzamide], for which the figures for the IC50 on Recombinant EphA7 (setting [1]) and on EphB4 were 250 to 500 nM and 25 to 50 nM, respectively. In the same order, the values of `Cc1ccc(NC(=O)c2cccc(N(C)C)c2)cc1-c1ccc2c(C(O)CN3CCOCC3)n[nH]c2n1` (centres unmarked) [Compound 6, 3-Dimethylamino-N-{3-[3-(1-hydroxy-2-morpholin-4-yl-ethyl)-1H-pyrazolo[3,4-b]pyridin-6-yl]-4-methyl-phenyl}-benzamide] are > 1000 nM and 25 to 50 nM. For `COc1cc(OC)cc(C(=O)Nc2ccc(C)c(-c3ccc4c(C(C)O)n[nH]c4n3)c2)c1` (centres unmarked) [Compound 9, N-{3-[3-(1-Hydroxy-ethyl)-1H-pyrazolo[3,4-b]pyridin-6-yl]-4-methyl-phenyl}-3,5-dimethoxy-benzamide] the same measures were > 1000 nM and 25 to 50 nM. For `COc1cc(OC)cc(C(=O)Nc2ccc(C)c(-c3ccc4c(C)n[nH]c4n3)c2)c1` [Compound 11, 3,5-Dimethoxy-N-[4-methyl-3-(3-methyl-1H-pyrazolo[3,4-b]pyridin-6-yl)-phenyl]-benzamide] the same measures were > 1000 nM and 0.01 to 25 nM. On to `CCc1n[nH]c2nc(-c3cc(NC(=O)c4cc(OC)cc(OC)c4)cnc3C)ccc12` [Compound 13, N-[5-(3-Ethyl-1H-pyrazolo[3,4-b]pyridin-6-yl)-6-methyl-pyridin-3-yl]-3,5-dimethoxy-benzamide], for which the figures for the half-inhibitory concentration (IC50) at Recombinant EphA7 (setting [1]) and on EphB4 were > 1000 nM and 25 to 50 nM, respectively. In the same order, the values of `Cc1cc(C)cc(C(=O)Nc2ccc(C)c(-c3ccc4c(CO)n[nH]c4n3)c2)c1` [Compound 16, N-[3-(3-Hydroxymethyl-1H-pyrazolo[3,4-b]pyridin-6-yl)-4-methyl-phenyl]-3,5-dimethyl-benzamide] are > 1000 nM and 0.01 to 25 nM. As to `COc1cc(OC)cc(C(=O)Nc2cnc(C)c(-c3ccc4c(C)n[nH]c4n3)c2)c1` [Compound 17, 3,5-Dimethoxy-N-[6-methyl-5-(3-methyl-1H-pyrazolo[3,4-b]pyridin-6-yl)-pyridin-3-yl]-benzamide], the IC50 at EphB4 lay within 25 to 50 nM. As for `CCc1n[nH]c2nc(-c3cc(NC(=O)c4cc(C)cc(OCCN5CCOCC5)c4)ccc3C)ccc12` [Compound 20, N-[3-(3-Ethyl-1H-pyrazolo[3,4-b]pyridin-6-yl)-4-methyl-phenyl]-3-methyl-5-(2-morpholin-4-yl-ethoxy)-benzamide], the IC50 on Recombinant EphA7 (setting [1]) lay within 500 to 1000 nM; on EphB4, 0.01 to 25 nM. For `CCc1n[nH]c2nc(-c3cc(NC(=O)c4cc(C)cc(OCCOC)c4)ccc3C)ccc12` [Compound 21, N-[3-(3-Ethyl-1H-pyrazolo[3,4-b]pyridin-6-yl)-4-methyl-phenyl]-3-(2-methoxy-ethoxy)-5-methyl-benzamide] the same measures were > 1000 nM and 0.01 to 25 nM. On to `COc1cc(OC)cc(C(=O)Nc2ccc(C)c(-c3ccc4c(C5(O)CC5)n[nH]c4n3)c2)c1` [Compound 29, N-{3-[3-(1-Hydroxy-cyclopropyl)-1H-pyrazolo[3,4-b]pyridin-6-yl]-4-methyl-phenyl}-3,5-dimethoxy-benzamide], for which the half-inhibitory concentration (IC50) at Recombinant EphA7 (setting [1]) was > 1000 nM. On to `Cc1ccc(NC(=O)c2cccc(C(F)(F)F)c2)cc1-c1ccc2c(C(C)O)n[nH]c2n1` (centres unmarked) [Compound 35, N-{3-[3-(1-Hydroxy-ethyl)-1H-pyrazolo[3,4-b]pyridin-6-yl]-4-methyl-phenyl}-3-trifluoromethyl-benzamide], for which the IC50 at Recombinant EphA7 (setting [1]) is > 1000 nM; at EphB4, 25 to 50 nM. In the same order, the values of `CCc1n[nH]c2nc(-c3cc(NC(=O)c4cc(OC)cc(C(F)(F)F)c4)cnc3C)ccc12` [Compound 49, N-[5-(3-Ethyl-1H-pyrazolo[3,4-b]pyridin-6-yl)-6-methyl-pyridin-3-yl]-3-methoxy-5-trifluoromethyl-benzamide] are > 1000 nM and > 100 nM. For `CCc1n[nH]c2nc(-c3cc(NC(=O)c4cc(C)cc(C)c4)cnc3C)ccc12` [Compound 50, N-[5-(3-Ethyl-1H-pyrazolo[3,4-b]pyridin-6-yl)-6-methyl-pyridin-3-yl]-3,5-dimethyl-benzamide] the same measures were 500 to 1000 nM and 0.01 to 25 nM.

For `Cc1ccc(NC(=O)c2cccc(C(F)(F)F)c2)cc1-c1ccc2c([C@H](C)O)n[nH]c2n1` [Compound 55, N-{3-[3-((S)-1-Hydroxy-ethyl)-1H-pyrazolo[3,4-b]pyridin-6-yl]-4-methyl-phenyl}-3-trifluoromethyl-benzamide], the 50% inhibitory concentration (IC50) on Recombinant EphA7 (setting [1]) fell in the range of 500 to 1000 nM; at EphB4 it was 0.01 to 25 nM. As to `Cc1ccc(NC(=O)c2cccc(C(F)(F)F)c2)cc1-c1cc(C)c2c(N)n[nH]c2n1` [Compound A, N-(3-(3-amino-4-methyl-1H-pyrazolo[3,4-b]pyridin-6-yl)-4-methylphenyl)-3-(trifluoromethyl)benzamide], the half-maximal inhibitory concentration (IC50) on Recombinant EphA7 (comparative compounds, read-out: EphA7 potency IC50) is > 1000 nM.

The values above are taken from patent US9062051B2, “Compounds and pharmaceutical compositions thereof for the treatment of proliferative disorders” (GALAPAGOS NV, priority 2014, dated 2015).
